The test system of one experiment is drug-naive rats. Briefly: Locomotor activity in drug-naive rats (in vivo behaviour). The arrangement: species or system rat. To be noted: recorded for 60 minutes, ± SEM. An excerpt:
Photobeam sensors are spaced 2.5 cm apart.

The subject of experiment [1] is DOPAC (3,4-dihydroxyphenylacetic acid) in the rat striatum. Briefly: Increase of DOPAC in the rat striatum after systemic administration (in vivo neurochemistry). Particulars: estimated ED50 on increase of DOPAC in rat striatum, systemic administration (s.c.), curve fitting; for ED50: sc. An excerpt: After the behavioural activity sessions, the rats are decapitated and their brains rapidly taken out and put on an ice-cold petri-dish. The limbic forebrain, the striatum, the frontal cortex and the remaining hemispheral parts of each rat are dissected and frozen. Each brain part is subsequently analyzed with respect to its content of monoamines and their metabolites.
The monoamine transmitter substances (NA (noradrenaline), DA (dopamine), 5-HT (serotonin)) as well as their amine (NM (normethanephrine), 3-MT (3-methoxytyramine)) and acid (DOPAC (3,4-dihydroxyphenylacetic acid), 5-HIAA (5-hydroxyindoleacetic acid), HVA (homovanillic acid)) metabolites are quantified in brain tissue homogenates by HPLC separations and electrochemical detection.
The analytical method is based on two chromatographic separations dedicated for amines or acids. Two chromatographic systems share a common auto injector with a 10-port valve and two sample loops for simultaneous injection on the two systems. Both systems are equipped with a reverse phase column (Luna C18(2), dp 3 μm, 50*2 mm i.d., Phenomenex) and electrochemical detection is accomplished at two potentials on glassy carbon electrodes (MF-1000, Bioanalytical Systems, Inc.). The column effluent is passed via a T-connection to the detection cell or to a waste outlet. This is accomplished by two solenoid valves, which block either the waste or detector outlet. By preventing the chromatographic front from reaching the detector, better detection conditions are achieved. The aqueous mobile phase (0.4 ml/min) for the acid system contains citric acid 14 mM, sodium citrate 10 mM, MeOH 15% (v/v) and EDTA 0.1 mM. Detection potentials relative to Ag/AgCl reference are 0.45 and 0.60V. The aqueous ion pairing mobile phase (0.5 ml/min) for the amine system contains citric acid 5 mM, sodium citrate 10 mM, MeOH 9% (v/v), MeCN 10.5% v/v), decane sulfonic acid 0.45 mM, and EDTA 0.1 mM. Detection potentials relative to Ag/AgCl reference are 0.45 and 0.65V.
ED50 values for the increase of DOPAC in striatum are calculated by curve fitting.

A value given as a limit tells only on which side of the number the result lay.

The term ED50 denotes the dose that gives a 50% effect, or the effect in half of the subjects.

On to `CCCN(CCC)CC1COc2ccc(S(C)(=O)=O)cc2O1` (stereo not shown) [Example 16, N-{[7-(METHYLSULFONYL)-2,3-DIHYDRO-1,4-BENZODIOXIN-2-YL]METHYL}-N-PROPYLPROPAN-1-AMINE], for which the Locomotor activity came to 13645 ± 3301 counts/60 min in the experiment on drug-naive rats (3.7 μmol/kg), 11807 ± 2628 counts/60 min with drug-naive rats (11 μmol/kg) and 18642 ± 2454 counts/60 min in the experiment on drug-naive rats (33 μmol/kg). Further, the 50% effective dose (ED50) in experiment [1] is 29 µmol/kg.

With `CCNC[C@H]1COc2c(F)cc(S(C)(=O)=O)cc2O1` [Example 19, N-{[(2S)-5-FLUORO-7-(METHYLSULFONYL)-2,3-DIHYDRO-1,4-BENZODIOXIN-2-YL]METHYL}ETHANAMINE], the results for the Locomotor activity with drug-naive rats (3.7 μmol/kg), with drug-naive rats (11 μmol/kg) and with drug-naive rats (33 μmol/kg) were 6123 ± 710 counts/60 min, 3191 ± 387 counts/60 min and 1936 ± 370 counts/60 min, respectively. Further, in experiment [1], the ED50 is < 3.7 µmol/kg.

As for `CCCNC[C@H]1COc2c(F)cc(S(C)(=O)=O)cc2O1` [Example 21, N-{[(2S)-5-FLUORO-7-(METHYLSULFONYL)-2,3-DIHYDRO-1,4-BENZODIOXIN-2-YL]METHYL}PROPAN-1-AMINE], the Locomotor activity in the experiment with drug-naive rats (3.7 μmol/kg) is reported as 12080 ± 1292 counts/60 min; in the experiment with drug-naive rats (11 μmol/kg), 8930 ± 631 counts/60 min; in the experiment on drug-naive rats (33 μmol/kg), 4430 ± 775 counts/60 min. The ED50 in experiment [1] was 6.8 µmol/kg.

Regarding `CCCNCC1CCc2ccc(S(C)(=O)=O)cc2O1` (stereo not shown) [Example 23, N-{[7-(METHYLSULFONYL)-3,4-DIHYDRO-2H-CHROMEN-2-YL]METHYL}-N—PROPAN-1-AMINE], the results for the Locomotor activity in the experiment on drug-naive rats (3.7 μmol/kg), in the experiment with drug-naive rats (11 μmol/kg) and in the experiment on drug-naive rats (33 μmol/kg) were 9551 ± 1284 counts/60 min, 9722 ± 1247 counts/60 min and 7700 ± 1039 counts/60 min, respectively. In experiment [1], the “ED50 DOPAC*” value is 14 µmol/kg.

Source of the values: patent US8524766B2, “Modulators of dopamine neurotransmission” (NSAB, Filial af Neurosearch Sweden AB, Sverige, priority 2008, dated 2013).
